Assay results reported in PubChem BioAssay AID248 (DTP/NCI, 2004).
Values joined by “and” are separate entries in the source; they are usually repeats but may differ in a detail not shown here. Equal values may be shown once. Toxic doses and inconclusive results are not listed.

Test system: L1210 leukemia ip in BDF1 mice, survival T/C
Experiment: NCI In Vivo Anticancer Drug Screen. Data for tumor model L1210 Leukemia (intraperitoneal) in B6D2F1 (BDF1) mice
Conditions: endpoint: mean survival time, higher = longer survival
Summary of the method: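 Tumor cells were implanted, animals were treated, and survival was followed. The result divides the treated measurement by the vehicle-control measurement.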

[1] = dose: 100.0 mg/kg/injection, schedule: Q01DX009 (ip), vehicle: Klucel (hydroxypropylcellulose) (HPC)
[2] = dose: 100.0 mg/kg/injection, schedule: Q04DX003 (ip), vehicle: Klucel (hydroxypropylcellulose) (HPC)
[3] = dose: 200.0 mg/kg/injection, schedule: Q01DX009 (ip), vehicle: Klucel (hydroxypropylcellulose) (HPC)
[4] = dose: 200.0 mg/kg/injection, schedule: Q04DX003 (ip), vehicle: Klucel (hydroxypropylcellulose) (HPC)
[5] = dose: 400.0 mg/kg/injection, schedule: Q01DX009 (ip), vehicle: Klucel (hydroxypropylcellulose) (HPC)
[6] = dose: 400.0 mg/kg/injection, schedule: Q04DX003 (ip), vehicle: Klucel (hydroxypropylcellulose) (HPC)
[7] = dose: 100.0 mg/kg/injection, schedule: Q01DX001 (ip), vehicle: saline
[8] = dose: 100.0 mg/kg/injection, schedule: Q01DX009 (ip), vehicle: saline
[9] = dose: 200.0 mg/kg/injection, schedule: Q01DX001 (ip), vehicle: saline
[10] = dose: 200.0 mg/kg/injection, schedule: Q01DX009 (ip), vehicle: saline
[11] = dose: 400.0 mg/kg/injection, schedule: Q01DX001 (ip), vehicle: saline
[12] = dose: 100.0 mg/kg/injection, schedule: Q01DX009 (ip), vehicle: saline with Tween-80
[13] = dose: 100.0 mg/kg/injection, schedule: Q04DX003 (ip), vehicle: saline with Tween-80
[14] = dose: 200.0 mg/kg/injection, schedule: Q01DX009 (ip), vehicle: saline with Tween-80
[15] = dose: 200.0 mg/kg/injection, schedule: Q04DX003 (ip), vehicle: saline with Tween-80
[16] = dose: 400.0 mg/kg/injection, schedule: Q04DX003 (ip), vehicle: saline with Tween-80
[17] = dose: 100.0 mg/kg/injection, schedule: Q01DX001 (ip), vehicle: Klucel (hydroxypropylcellulose) (HPC)
[18] = dose: 200.0 mg/kg/injection, schedule: Q01DX001 (ip), vehicle: Klucel (hydroxypropylcellulose) (HPC)
[19] = dose: 100.0 mg/kg/injection, schedule: Q04DX003 (ip), vehicle: saline
[20] = dose: 200.0 mg/kg/injection, schedule: Q04DX003 (ip), vehicle: saline
[21] = dose: 50.0 mg/kg/injection, schedule: Q01DX009 (ip), vehicle: saline

## CC(=O)[C@H]1CC[C@H]2[C@@H]3CCC4=CC(=O)[C@H](C)C[C@]4(C)[C@@]3(F)C(=O)C[C@]12C
dose: 15.0 mg/kg/injection, schedule: Q01DX Z (sc), vehicle: steriod suspending solution
  T/C: 98 % of control
dose: 30.0 mg/kg/injection, schedule: Q01DX Z (sc), vehicle: steriod suspending solution
  T/C: 96 % of control
dose: 60.0 mg/kg/injection, schedule: Q01DX Z (sc), vehicle: steriod suspending solution
  T/C: 101 % of control and 113 % of control
dose: 100.0 mg/kg/injection, schedule: Q01DX009 (sc), vehicle: steriod suspending solution
  T/C: 116 % of control
dose: 100.0 mg/kg/injection, schedule: Q04DX003 (sc), vehicle: steriod suspending solution
  T/C: 98 % of control
dose: 120.0 mg/kg/injection, schedule: Q01DX Z (sc), vehicle: steriod suspending solution
  T/C: 105 % of control
dose: 200.0 mg/kg/injection, schedule: Q01DX009 (sc), vehicle: steriod suspending solution
  T/C: 110 % of control
dose: 200.0 mg/kg/injection, schedule: Q04DX003 (sc), vehicle: steriod suspending solution
  T/C: 98 % of control
dose: 240.0 mg/kg/injection, schedule: Q01DX Z (sc), vehicle: steriod suspending solution
  T/C: 103 % of control
dose: 400.0 mg/kg/injection, schedule: Q01DX009 (sc), vehicle: steriod suspending solution
  T/C: 111 % of control
dose: 400.0 mg/kg/injection, schedule: Q04DX003 (sc), vehicle: steriod suspending solution
  T/C: 98 % of control

## CCOC(=O)c1c(C)[nH]c2ccc(O)cc12
[1]
  T/C: 92 % of control
[2]
  T/C: 95 % of control
[3]
  T/C: 104 % of control
[4]
  T/C: 100 % of control
[5]
  T/C: 114 % of control
[6]
  T/C: 100 % of control

## NNC(=O)CCO
[7]
  T/C: 103 % of control
[8]
  T/C: 89 % of control
[9]
  T/C: 105 % of control
[10]
  T/C: 100 % of control
[11]
  T/C: 94 % of control
dose: 400.0 mg/kg/injection, schedule: Q01DX009 (ip), vehicle: saline
  T/C: 96 % of control

## CCCCN1C(=O)C/C(=C2\CC(=O)N(CCCC)C2=O)C1=O
[1]
  T/C: 91 % of control
[2]
  T/C: 87 % of control
[3]
  T/C: 94 % of control
[4]
  T/C: 101 % of control
[5]
  T/C: 91 % of control
[6]
  T/C: 94 % of control

## O=S(=O)(Nc1ccc(Br)cc1)c1ccccc1
[12]
  T/C: 99 % of control
[13]
  T/C: 105 % of control
[14]
  T/C: 87 % of control
[15]
  T/C: 100 % of control
dose: 400.0 mg/kg/injection, schedule: Q01DX009 (ip), vehicle: saline with Tween-80
  T/C: 95 % of control
[16]
  T/C: 98 % of control

## O=C(O)/C=C\c1cccc([N+](=O)[O-])c1
[13]
  T/C: 92 % of control
[15]
  T/C: 93 % of control
[16]
  T/C: 92 % of control

## COc1cccc(C2N(Cc3ccc(OC)cc3OC)CCCN2Cc2ccc(OC)cc2OC)c1
dose: 50.0 mg/kg/injection, schedule: Q01DX001 (ip), vehicle: saline
  T/C: 89 % of control
[7]
  T/C: 96 % of control
[9]
  T/C: 91 % of control
[11]
  T/C: 96 % of control

## O=[N+]([O-])/C=C/C(Cl)(Cl)Cl
dose: 6.25 mg/kg/injection, schedule: Q01DX009 (ip), vehicle: Klucel (hydroxypropylcellulose) (HPC)
  T/C: 101 % of control
dose: 12.5 mg/kg/injection, schedule: Q01DX009 (ip), vehicle: Klucel (hydroxypropylcellulose) (HPC)
  T/C: 108 % of control
dose: 25.0 mg/kg/injection, schedule: Q01DX009 (ip), vehicle: Klucel (hydroxypropylcellulose) (HPC)
  T/C: 97 % of control
dose: 50.0 mg/kg/injection, schedule: Q01DX009 (ip), vehicle: Klucel (hydroxypropylcellulose) (HPC)
  T/C: 95 % of control

## O=NN(CCCl)C(=O)NC1C=CCCC1 (configuration not stated)
dose: 9.0 mg/kg/injection, schedule: Q01DX001 (ip), vehicle: other
  T/C: 117 % of control
dose: 20.0 mg/kg/injection, schedule: Q01DX001 (ip), vehicle: other
  T/C: 158 % of control
dose: 37.0 mg/kg/injection, schedule: Q01DX001 (ip), vehicle: other
  T/C: 224 % of control
dose: 50.0 mg/kg/injection, schedule: Q01DX001 (ip), vehicle: other
  T/C: 175 % of control
dose: 75.0 mg/kg/injection, schedule: Q01DX001 (ip), vehicle: other
  T/C: 173 % of control
dose: 112.0 mg/kg/injection, schedule: Q01DX001 (ip), vehicle: other
  T/C: 166 % of control

## COc1ccc(OC)c(NC(=O)Oc2ccccc2C(N)=O)c1
dose: 25.0 mg/kg/injection, schedule: Q04DX003 (ip), vehicle: Klucel (hydroxypropylcellulose) (HPC)
  T/C: 89 % of control
dose: 50.0 mg/kg/injection, schedule: Q04DX003 (ip), vehicle: Klucel (hydroxypropylcellulose) (HPC)
  T/C: 95 % of control
[2]
  T/C: 94 % of control and 92 % of control

## CCOP(=O)(C(O)C(Cl)(Cl)Cl)C(O)C(Cl)(Cl)Cl (configuration not stated)
dose: 75.0 mg/kg/injection, schedule: Q04DX003 (ip), vehicle: saline with Tween-80
  T/C: 95 % of control
dose: 150.0 mg/kg/injection, schedule: Q04DX003 (ip), vehicle: saline with Tween-80
  T/C: 97 % of control

## Cc1ccc(C(c2ccc(C)c(C)c2)C(O)C(O)C(O)C(O)CO)cc1C (configuration not stated)
[17]
  T/C: 92 % of control
[7]
  T/C: 87 % of control
[18]
  T/C: 100 % of control
[9]
  T/C: 91 % of control
[11]
  T/C: 89 % of control

## C=CCOCC(O)CNCCCOC (configuration not stated)
[8]
  T/C: 107 % of control
[19]
  T/C: 96 % of control
[10]
  T/C: 98 % of control
[20]
  T/C: 98 % of control

## c1ccc(N(c2ccccc2)N(c2ccccc2)c2ccccc2)cc1
dose: 12.5 mg/kg/injection, schedule: Q01DX009 (ip), vehicle: saline
  T/C: 90 % of control
dose: 50.0 mg/kg/injection, schedule: Q04DX003 (ip), vehicle: saline
  T/C: 89 % of control
[7]
  T/C: 88 % of control
[9]
  T/C: 88 % of control

## Cn1nc(N)c2cc3c(=O)[nH]cnc3nc21
[17]
  T/C: 96 % of control
[18]
  T/C: 104 % of control
dose: 400.0 mg/kg/injection, schedule: Q01DX001 (ip), vehicle: Klucel (hydroxypropylcellulose) (HPC)
  T/C: 101 % of control

## COc1cc2cc[n+](C)cc2cc1OC
[21]
  T/C: 111 % of control
[8]
  T/C: 108 % of control
[19]
  T/C: 104 % of control
[20]
  T/C: 107 % of control

## COC(OC)C(Br)(Br)Br
[7]
  T/C: 96 % of control
[9]
  T/C: 106 % of control
[11]
  T/C: 100 % of control

## CC(Cl)(Cl)[N+](=O)[O-]
[12]
  T/C: 104 % of control
[14]
  T/C: 104 % of control

## CCOC(=O)c1cnn(-c2ccccc2)c1N
dose: 25.0 mg/kg/injection, schedule: Q01DX009 (ip), vehicle: saline
  T/C: 104 % of control
[21]
  T/C: 108 % of control
[1]
  T/C: 98 % of control
[8]
  T/C: 105 % of control
[2]
  T/C: 96 % of control
[3]
  T/C: 100 % of control
[4]
  T/C: 100 % of control
[5]
  T/C: 102 % of control
[6]
  T/C: 100 % of control

## CC(=O)OCc1ccc(/C=N/N2C(=O)CSC2=S)o1
dose: 75.0 mg/kg/injection, schedule: Q01DX001 (ip), vehicle: carboxymethylcellulose (CMC)
  T/C: 105 % of control
dose: 150.0 mg/kg/injection, schedule: Q01DX001 (ip), vehicle: carboxymethylcellulose (CMC)
  T/C: 100 % of control
dose: 300.0 mg/kg/injection, schedule: Q01DX001 (ip), vehicle: carboxymethylcellulose (CMC)
  T/C: 97 % of control

## CN=C(NN)Nc1ccccc1
dose: 87.5 mg/kg/injection, schedule: Q04DX003 (ip), vehicle: saline
  T/C: 96 % of control
dose: 175.0 mg/kg/injection, schedule: Q04DX003 (ip), vehicle: saline
  T/C: 104 % of control
dose: 350.0 mg/kg/injection, schedule: Q04DX003 (ip), vehicle: saline
  T/C: 93 % of control

## O=C1CCC(N2C(=O)C3C(C2=O)C2(Cl)C(Cl)=C(Cl)C3(Cl)C2(Cl)Cl)C(=O)N1 (configuration not stated)
[19]
  T/C: 94 % of control
[20]
  T/C: 97 % of control

## Nc1cccc(OCCCCc2ccccc2)c1
[13]
  T/C: 101 % of control
[15]
  T/C: 95 % of control

## COc1ccc(CN(N=O)c2ccc(C(=O)O)cc2)cc1
[12]
  T/C: 91 % of control
[13]
  T/C: 110 % of control
[14]
  T/C: 90 % of control
[15]
  T/C: 104 % of control
[16]
  T/C: 105 % of control

## Cn1c2c(c(=O)n(C)c1=O)C(C(=O)O)CC(=O)N2 (configuration not stated)
[1]
  T/C: 103 % of control
[2]
  T/C: 103 % of control
[3]
  T/C: 102 % of control
[4]
  T/C: 102 % of control
[5]
  T/C: 100 % of control
[6]
  T/C: 110 % of control
